Data: US10093630B2, “Pyrazole compounds and methods of making and using same” (ABIDE THERAPEUTICS, INC., priority 2014, dated 2018)
Like-named read-outs stand apart in the source and are kept apart here.

Legend:
Experiment in all cases: In vitro competitive activity-based protein profiling (gel-based, FP-Rh or HT-01 probe)
Assay type in all cases: biochemical
FAAH = molecular target: T1, FAAH (Mus musculus, UniProt O08914); conditions: for inhibition at 10 µM: 10 μM inhibitor, read-out: % Inhibition at 10 μM, B = FAAH; for IC50: mouse brain membrane fraction or cell lysates, 30 min preincubation at 37° C., read-out: Mouse (IC50 value, nM) FAAH; for inhibition at 1 µM: 1 μM inhibitor, read-out: % Inhibition at 1 μM, B = FAAH
T1 construct: Proteomes (mouse brain membrane fraction or cell lysates); from tissue; host or cells: mouse brain membrane fraction (or cell lysates, not specified)
T1 sequence (O08914 1-579): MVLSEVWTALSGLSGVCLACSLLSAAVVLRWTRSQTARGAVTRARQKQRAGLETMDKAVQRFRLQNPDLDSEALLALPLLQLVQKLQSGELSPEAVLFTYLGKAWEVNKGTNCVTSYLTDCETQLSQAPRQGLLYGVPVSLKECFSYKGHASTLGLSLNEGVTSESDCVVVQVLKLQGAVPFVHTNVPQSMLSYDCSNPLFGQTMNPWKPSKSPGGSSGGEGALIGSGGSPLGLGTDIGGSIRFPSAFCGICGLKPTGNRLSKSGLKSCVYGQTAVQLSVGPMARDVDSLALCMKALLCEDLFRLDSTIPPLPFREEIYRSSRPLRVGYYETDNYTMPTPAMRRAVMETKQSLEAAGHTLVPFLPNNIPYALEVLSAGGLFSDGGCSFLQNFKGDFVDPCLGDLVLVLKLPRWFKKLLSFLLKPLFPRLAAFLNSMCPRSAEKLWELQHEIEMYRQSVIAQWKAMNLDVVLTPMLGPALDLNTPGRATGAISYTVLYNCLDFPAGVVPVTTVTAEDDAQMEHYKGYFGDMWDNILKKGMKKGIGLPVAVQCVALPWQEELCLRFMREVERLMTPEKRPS
Summary of the method: (§1)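 Read-out: fluorescent band intensity on SDS-PAGE gels, reporting remaining serine hydrolase activity. Before that, proteome (mouse brain membranes or cell lysates, 1.0 mg/mL) saw a range of inhibitor concentrations for 30 min at 37° C, followed by 30 min probe labelling (FP-Rh or HT-01).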

ABHD6 = molecular target: T2, ABHD6 (Mus musculus, UniProt Q8R2Y0); conditions: for inhibition at 1 µM: 1 μM inhibitor, read-out: % Inhibition at 1 μM, C = ABHD6; for inhibition at 10 µM: 10 μM inhibitor, read-out: % Inhibition at 10 μM, C = ABHD6; for IC50: mouse brain membrane fraction or cell lysates, 30 min preincubation at 37° C., read-out: Mouse (IC50 value, nM) ABHD6
T2 construct: Proteomes (mouse brain membrane fraction or cell lysates); from tissue; host or cells: mouse brain membrane fraction (or cell lysates, not specified)
T2 sequence (Q8R2Y0 1-336): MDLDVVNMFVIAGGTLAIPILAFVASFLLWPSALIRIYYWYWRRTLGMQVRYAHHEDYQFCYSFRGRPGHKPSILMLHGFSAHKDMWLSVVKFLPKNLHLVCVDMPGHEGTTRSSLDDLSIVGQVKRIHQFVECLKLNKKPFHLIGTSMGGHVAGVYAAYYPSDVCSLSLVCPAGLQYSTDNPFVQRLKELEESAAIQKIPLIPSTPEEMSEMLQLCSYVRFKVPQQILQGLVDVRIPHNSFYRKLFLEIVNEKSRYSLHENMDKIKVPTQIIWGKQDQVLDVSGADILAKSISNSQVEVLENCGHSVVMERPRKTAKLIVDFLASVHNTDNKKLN
Summary of the method: as §1

PLA2G7 = molecular target: T3, PLA2G7 (Mus musculus, UniProt Q60963); conditions: for inhibition at 1 µM: 1 μM inhibitor, read-out: % Inhibition at 1 μM, D = PLA2G7; for inhibition at 10 µM: 10 μM inhibitor, read-out: % Inhibition at 10 μM, D = PLA2G7; for IC50: mouse brain membrane fraction or cell lysates, 30 min preincubation at 37° C.
T3 construct: Proteomes (mouse brain membrane fraction or cell lysates); from tissue; host or cells: mouse brain membrane fraction (or cell lysates, not specified)
T3 sequence (Q60963 22-440): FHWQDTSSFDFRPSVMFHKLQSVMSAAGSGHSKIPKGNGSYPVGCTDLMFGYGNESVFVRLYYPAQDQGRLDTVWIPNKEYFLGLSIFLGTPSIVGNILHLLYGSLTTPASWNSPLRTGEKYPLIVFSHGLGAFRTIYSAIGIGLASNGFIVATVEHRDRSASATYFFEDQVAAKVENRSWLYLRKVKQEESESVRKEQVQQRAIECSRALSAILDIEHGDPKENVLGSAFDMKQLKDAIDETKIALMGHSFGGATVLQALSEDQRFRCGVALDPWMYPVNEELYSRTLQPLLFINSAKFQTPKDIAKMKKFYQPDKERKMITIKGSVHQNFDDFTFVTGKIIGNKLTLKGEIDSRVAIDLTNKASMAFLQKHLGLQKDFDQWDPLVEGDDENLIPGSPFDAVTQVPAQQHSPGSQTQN
Summary of the method: as §1

MAGL = molecular target: T4, MAGL (Mus musculus, UniProt O35678); conditions: for inhibition at 10 µM: 10 μM inhibitor; for inhibition at 1 µM: 1 μM inhibitor; for IC50: mouse brain membrane fraction or cell lysates, 30 min preincubation at 37° C., read-out: Mouse (IC50 value, nM) MAGL
T4 construct: Proteomes (mouse brain membrane fraction or cell lysates); from tissue; host or cells: mouse brain membrane fraction (or cell lysates, not specified)
T4 sequence (O35678 1-303): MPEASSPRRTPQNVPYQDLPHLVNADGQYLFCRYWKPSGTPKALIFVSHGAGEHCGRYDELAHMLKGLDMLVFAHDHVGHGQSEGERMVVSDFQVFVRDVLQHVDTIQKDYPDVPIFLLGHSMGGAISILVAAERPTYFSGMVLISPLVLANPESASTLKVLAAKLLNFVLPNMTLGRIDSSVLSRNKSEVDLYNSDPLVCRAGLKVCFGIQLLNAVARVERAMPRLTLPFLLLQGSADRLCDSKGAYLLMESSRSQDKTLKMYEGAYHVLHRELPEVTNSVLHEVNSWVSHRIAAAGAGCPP
Summary of the method: as §1

| SMILES | inhibition at 10 µM (FAAH) [%] | IC50 (FAAH) [nM] | inhibition at 1 µM (ABHD6) [%] | inhibition at 10 µM (ABHD6) [%] | inhibition at 1 µM (PLA2G7) [%] | inhibition at 10 µM (PLA2G7) [%] | inhibition at 10 µM (MAGL) [%] | inhibition at 1 µM (FAAH; gel-based competitive ABPP) [%] | inhibition at 1 µM (ABHD6; gel-based competitive ABPP) [%] | IC50 (ABHD6) [nM] | inhibition at 1 µM (PLA2G7; gel-based competitive ABPP) [%] | IC50 (PLA2G7) [nM] | inhibition at 1 µM (MAGL; gel-based competitive ABPP) [%] | IC50 (MAGL) [nM] | inhibition at 10 µM (FAAH; gel-based competitive ABPP) [%] | inhibition at 10 µM (ABHD6; gel-based competitive ABPP) [%] | inhibition at 10 µM (PLA2G7; gel-based competitive ABPP) [%] | inhibition at 10 µM (MAGL; gel-based competitive ABPP) [%] | inhibition at 1 µM (FAAH) [%] | inhibition at 1 µM (MAGL) [%] |
| --- | --- | --- | --- | --- | --- | --- | --- | --- | --- | --- | --- | --- | --- | --- | --- | --- | --- | --- | --- | --- |
| CCN(Cc1ccccc1Cl)C(=O)n1cc(Cl)cn1 [Example 130, 4-Chloro-N-(2-chlorobenzyl)-N-ethyl-1H-pyrazole-1-carboxamide] |  |  | < 25 |  | < 25 |  |  |  |  |  |  |  |  |  |  |  |  |  | < 25 | < 25 |
| O=C(c1cnn(C(=O)N2CCN(Cc3ccc(-c4ccccc4)cc3OCc3ccccc3)CC2)c1)N1CCCC1 [Example 291, (4-((3-(Benzyloxy)biphenyl-4-yl)methyl)piperazin-1-yl)(4-(pyrrolidine-1-carbonyl)-1H-pyrazol-1-yl)methanone] |  |  |  |  |  |  |  | > 75 | > 75 |  | < 25 |  | > 75 |  | > 75 | > 75 | 25 to 75 | > 75 |  |  |
| CCN(Cc1ccccc1OC)C(=O)n1cc(Cl)cn1 [Example 127, 4-Chloro-N-ethyl-N-(2-methoxybenzyl)-1H-pyrazole-1-carboxamide] | > 75 |  | < 25 | > 75 | < 25 | < 25 | > 75 |  |  |  |  |  |  |  |  |  |  |  | < 25 | < 25 |
| N#Cc1cnn(C(=O)Nc2ccc3ccccc3c2)c1 [Example 42, 4-Cyano-N-(naphthalen-2-yl)-1H-pyrazole-1-carboxamide] | < 25 |  | < 25 | < 25 | < 25 | < 25 | > 75 |  |  |  |  |  |  |  |  |  |  |  | < 25 | < 25 |
| O=C(NCCCCCc1ccccc1)n1cccn1 [Example 37, N-(5-phenylpentyl)-1H-pyrazole-1-carboxamide] | < 25 |  |  | < 25 |  | < 25 | < 25 |  |  |  |  |  |  |  |  |  |  |  |  |  |
| CCN(Cc1ccc(Cl)cc1)C(=O)n1cc(Cl)cn1 [Example 131, 4-chloro-N-(4-chlorobenzyl)-N-ethyl-1H-pyrazole-1-carboxamide] |  | < 100 | < 25 |  | < 25 |  |  |  |  | > 1000 |  |  |  | > 1000 |  |  |  |  | > 75 | < 25 |

The next lines start with the values.

| inhibition at 10 µM (FAAH) [%] | IC50 (FAAH) [nM] | inhibition at 1 µM (ABHD6) [%] | inhibition at 10 µM (ABHD6) [%] | inhibition at 1 µM (PLA2G7) [%] | inhibition at 10 µM (PLA2G7) [%] | inhibition at 10 µM (MAGL) [%] | inhibition at 1 µM (FAAH; gel-based competitive ABPP) [%] | inhibition at 1 µM (ABHD6; gel-based competitive ABPP) [%] | IC50 (ABHD6) [nM] | inhibition at 1 µM (PLA2G7; gel-based competitive ABPP) [%] | IC50 (PLA2G7) [nM] | inhibition at 1 µM (MAGL; gel-based competitive ABPP) [%] | IC50 (MAGL) [nM] | inhibition at 10 µM (FAAH; gel-based competitive ABPP) [%] | inhibition at 10 µM (ABHD6; gel-based competitive ABPP) [%] | inhibition at 10 µM (PLA2G7; gel-based competitive ABPP) [%] | inhibition at 10 µM (MAGL; gel-based competitive ABPP) [%] | inhibition at 1 µM (FAAH) [%] | inhibition at 1 µM (MAGL) [%] | SMILES |
| --- | --- | --- | --- | --- | --- | --- | --- | --- | --- | --- | --- | --- | --- | --- | --- | --- | --- | --- | --- | --- |
| > 75 | > 1000 | < 25 | > 75 | < 25 | > 75 | < 25 |  |  |  |  |  |  |  |  |  |  |  |  |  | O=C(c1cnn(C(=O)N2CCN(Cc3nccs3)CC2)c1)N1CCC1 [Example 91, Azetidin-1-yl(1-(4-(thiazol-2-ylmethyl)piperazine-1-carbonyl)-1H-pyrazol-4-yl)methanone] |
|  | < 100 |  |  |  |  |  | > 75 | < 25 | > 1000 | < 25 | > 1000 | > 75 | 100 to 1000 |  |  |  |  |  |  | CCN(Cc1ccc(N2CCOCC2)cc1)C(=O)n1cc(C(F)(F)F)cn1 [Example 264, N-Ethyl-N-(4-morpholinobenzyl)-4-(trifluoromethyl)-1H-pyrazole-1-carboxamide] |
|  |  |  |  |  |  |  | > 75 | > 75 |  | > 75 |  | > 75 |  | > 75 | > 75 | > 75 | > 75 |  |  | N#Cc1cnn(C(=O)N2CCN(Cc3ccc(C(=O)N4CCCCC4)cc3Cl)CC2)c1 [Example 282, 1-(4-(2-Chloro-4-(piperidine-1-carbonyl)benzyl)piperazine-1-carbonyl)-1H-pyrazole-4-carbonitrile] |
| > 75 | 100 to 1000 | > 75 | > 75 | < 25 | > 75 | > 75 |  |  | > 1000 |  | > 1000 |  | > 1000 |  |  |  |  | > 75 | > 75 | O=C(N1CCCN(Cc2ccccc2)CC1)n1cc(C(F)(F)F)cn1 [Example 157, (4-Benzyl-1,4-diazepan-1-yl)(4-(trifluoromethyl)-1H-pyrazol-1-yl)methanone] |
| > 75 |  | > 75 | > 75 | > 75 | > 75 | > 75 |  |  |  |  |  |  |  |  |  |  |  | > 75 | > 75 | Cc1ccccc1N1CCN(C(=O)n2cc(C(F)(F)F)cn2)CC1 [Example 230, (4-o-Tolylpiperazin-1-yl)(4-(trifluoromethyl)-1H-pyrazol-1-yl)methanone] |
| > 75 |  | > 75 | > 75 | > 75 | > 75 | > 75 |  |  |  |  |  |  |  |  |  |  |  | > 75 | > 75 | O=C(N1CCN(c2ccccc2N2CCCC2)CC1)n1cc(C(F)(F)F)cn1 [Example 239, (4-(2-(Pyrrolidin-1-yl)phenyl)piperazin-1-yl)(4-(trifluoromethyl)-1H-pyrazol-1-yl)methanone] |
| > 75 |  | > 75 | > 75 | > 75 | > 75 | > 75 |  |  |  |  |  |  |  |  |  |  |  | > 75 | > 75 | O=C(N1CCN(c2cccc(Cl)c2)CC1)n1cc(C(F)(F)F)cn1 [Example 228, (4-(3-Chlorophenyl)piperazin-1-yl)(4-(trifluoromethyl)-1H-pyrazol-1-yl)methanone] |
| > 75 |  | > 75 | > 75 | > 75 | > 75 | > 75 |  |  |  |  |  |  |  |  |  |  |  | > 75 | > 75 | COc1cc(-c2ccccc2)ccc1CN1CCN(C(=O)n2cc(C#N)cn2)CC1 [Example 145, 1-(4-((3-Methoxybiphenyl-4-yl)methyl)piperazine-1-carbonyl)-1H-pyrazole-4-carbonitrile] |
